Here are results for four compounds from ChEMBL document CHEMBL3124816, “Preparation and optimization of new 4-(2-(indolin-1-yl)-2-oxoethyl)-2-morpholinothiazole-5-carboxylic acid and amide derivatives as potent and selective PI3Kβ inhibitors” (Bioorg Med Chem Lett, 2014).

By IC50 is commonly meant the midpoint of a concentration-inhibition curve. One may read the efflux ratio as a quotient of directional permeabilities that is used to spot active efflux. Usually Papp stands for the rate of passage across a membrane or cell layer, normalised by area and donor concentration. For orientation: bioavailability means the share of a dose that reaches the circulation, judged against a reference dose that is usually intravenous. A low value points to little systemic uptake. Usually clearance stands for a measure of how efficiently the substance is removed, as volume per time. Low readings indicate a low capacity for elimination, high ones a high capacity for elimination. The Tmax is the time at which the peak concentration occurs. For orientation: AUC means the area under the concentration-time curve, a measure of exposure. The low end stands for less exposure, the high end for more exposure. The Cmax is the maximum level reached in the sampled fluid or tissue.

≈ marks a conversion by molar mass, not a printed value. Calls of active or inactive are those of the source. The calls are words filed in the database; no cut-off is given here. Some results are limits rather than exact numbers.

Data set [1] in a line: Thermodynamic solubility of the compound in 50 mM Phosphate buffer at pH 7.4 after 16 hrs by HPLC analysis. It is filed as physicochemical. The conditions noted are these: for solubility thermodynamic at 16 h: phosphate buffer, pH 7.4, read-out: Therm_solubility.
Data set [2] deals with T1, Phosphatidylinositol 4,5-bisphosphate 3-kinase catalytic subunit beta isoform (Homo sapiens, UniProt P42338). The data set is described as follows: Inhibition of PI3Kbeta in human PTEN-deficient PC3 cells assessed as Akt phosphorylation at S473. In kind it is cell-based, PC-3.
Data set [3] has as its target Phosphatidylinositol 4,5-bisphosphate 3-kinase catalytic subunit gamma isoform (Homo sapiens, UniProt P48736). The data set is described as follows: Inhibition of human PI3Kgamma after 15 mins.
For data set [4], the target named is T2, Phosphatidylinositol 4,5-bisphosphate 3-kinase catalytic subunit delta isoform (Homo sapiens, UniProt O00329).
T2 sequence (O00329 whole entry): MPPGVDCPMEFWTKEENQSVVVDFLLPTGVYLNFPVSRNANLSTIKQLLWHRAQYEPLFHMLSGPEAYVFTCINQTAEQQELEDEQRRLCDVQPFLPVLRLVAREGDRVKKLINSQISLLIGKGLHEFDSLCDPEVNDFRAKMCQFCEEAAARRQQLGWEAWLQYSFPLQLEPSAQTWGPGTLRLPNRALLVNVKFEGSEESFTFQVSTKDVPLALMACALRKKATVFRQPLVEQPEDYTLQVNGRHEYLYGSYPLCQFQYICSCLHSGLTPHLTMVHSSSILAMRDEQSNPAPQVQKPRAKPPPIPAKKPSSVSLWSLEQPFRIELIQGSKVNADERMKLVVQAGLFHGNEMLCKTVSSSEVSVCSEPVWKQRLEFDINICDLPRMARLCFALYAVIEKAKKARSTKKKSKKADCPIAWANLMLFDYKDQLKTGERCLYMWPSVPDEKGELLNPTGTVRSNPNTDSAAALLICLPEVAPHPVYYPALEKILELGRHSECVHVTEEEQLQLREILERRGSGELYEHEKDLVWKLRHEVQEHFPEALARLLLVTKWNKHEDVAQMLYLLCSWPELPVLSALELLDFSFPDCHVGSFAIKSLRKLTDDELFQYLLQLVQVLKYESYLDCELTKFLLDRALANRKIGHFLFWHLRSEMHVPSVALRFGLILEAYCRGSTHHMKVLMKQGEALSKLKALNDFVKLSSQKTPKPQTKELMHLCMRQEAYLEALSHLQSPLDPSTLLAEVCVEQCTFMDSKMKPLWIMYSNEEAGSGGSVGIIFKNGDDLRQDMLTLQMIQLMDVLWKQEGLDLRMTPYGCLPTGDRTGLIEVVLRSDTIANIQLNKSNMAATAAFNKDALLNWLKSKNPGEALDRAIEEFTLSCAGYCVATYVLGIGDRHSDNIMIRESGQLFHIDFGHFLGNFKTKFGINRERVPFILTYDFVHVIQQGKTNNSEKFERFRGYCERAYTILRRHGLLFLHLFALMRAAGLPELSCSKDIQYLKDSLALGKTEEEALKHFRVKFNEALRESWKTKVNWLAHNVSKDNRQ
The data set can be described thus: Inhibition of human PI3Kdelta after 15 mins.

The target of data set [5] is T1, Phosphatidylinositol 4,5-bisphosphate 3-kinase catalytic subunit beta isoform. The data set is described as follows: Inhibition of human PI3Kbeta after 15 mins.
Data set [6] deals with Phosphatidylinositol 4,5-bisphosphate 3-kinase catalytic subunit alpha isoform (Homo sapiens, UniProt P42336). The data set is described as follows: Inhibition of human PI3Kalpha after 15 mins.
Data set [7] is described as follows: (§1) Drug metabolism in human liver microsomes assessed as compound lability. The note with it: liver microsomes, read-out: Drug metabolism. In kind it is ADME. A general note: Microsomes from liver hold many membrane-bound enzymes, among them those of drug oxidation.
In a further data set the target is Cytochrome P450 3A4 (Homo sapiens, UniProt P08684). The data set can be described thus: Inhibition of human recombinant CYP3A4.
Data set [8] can be described thus: Drug metabolism in mouse liver microsomes assessed as compound lability. It is filed as ADME, Microsome. The conditions noted are these: for metabolised: liver microsomes, read-out: Drug metabolism; for Drug metabolism: microsomes.
Data set [9] is described as follows: Efflux ratio of permeability from basolateral to apical side over apical to basolateral side in human Caco2 cells. In kind it is ADME, cell-based. The conditions noted are these: Caco-2. (Passage across Caco-2 layers is used to estimate intestinal permeability.)
The nature of data set [10]: (§2) Apparent permeability of the compound in human Caco2 cells. The note with it: Caco-2. It is filed as ADME, cell-based.
A short description of data set [11]: Plasma concentration in SCID mouse harboring human PTEN-deficient PC3 cells at 100 mg/kg, po after 7 hrs. In kind it is ADME, organism-based, PC-3. The arrangement: dose 100 mg/kg, route oral.
Data set [12] can be described thus: Plasma concentration in SCID mouse harboring human PTEN-deficient PC3 cells at 100 mg/kg, po after 16 hrs. It is filed as ADME, organism-based, PC-3. Also noted: dose 100 mg/kg, route oral.
Data set [13] in a line: Plasma concentration in SCID mouse harboring human PTEN-deficient PC3 cells at 100 mg/kg, po after 1 hr. It is filed as ADME, organism-based, PC-3. Also noted: dose 100 mg/kg, route oral.
Data set [14] has as its system Mus musculus. The data set is described as follows: Inhibition of PI3Kbeta in SCID mouse harboring human PTEN-deficient PC3 cells assessed as Akt phosphorylation at S473 at 100 mg/kg, po after 16 hrs. In kind it is functional, organism-based. The arrangement: dose 100 mg/kg. The conditions noted are these: PC-3.
Data set [15] concerns Mus musculus. The data set can be described thus: Inhibition of PI3Kbeta in SCID mouse harboring human PTEN-deficient PC3 cells assessed as Akt phosphorylation at S473 at 100 mg/kg, po after 7 hrs. It is filed as functional, organism-based. The arrangement: dose 100 mg/kg. The conditions noted are these: PC-3.
Data set [16] relates to Mus musculus. The data set can be described thus: Inhibition of PI3Kbeta in SCID mouse harboring human PTEN-deficient PC3 cells assessed as Akt phosphorylation at S473 at 100 mg/kg, po after 1 hr. In kind it is functional, organism-based. Also noted: dose 100 mg/kg. The note with it: PC-3.
Data set [17] is described as follows: Plasma protein binding in mouse. In kind it is ADME, organism-based. The conditions noted are these: read-out: PPB (converted).
Data set [18] is described as follows: Plasma concentration in SCID mouse harboring human PTEN-deficient PC3 cells at 150 mg/kg, po after 16 hrs. In kind it is ADME, organism-based, PC-3. The arrangement: dose 150 mg/kg, route oral.
A short description of data set [19]: Plasma concentration in SCID mouse harboring human PTEN-deficient PC3 cells at 150 mg/kg, po after 7 hrs. It is filed as ADME, organism-based, PC-3. The arrangement: dose 150 mg/kg, route oral.
A short description of data set [20]: Plasma concentration in SCID mouse harboring human PTEN-deficient PC3 cells at 150 mg/kg, po after 1 hr. In kind it is ADME, organism-based, PC-3. Also noted: dose 150 mg/kg, route oral.
Data set [21] can be described thus: Oral bioavailability in Sprague-Dawley rat at 10 mg/kg. It is filed as ADME, organism-based. The conditions noted are these: in vivo.
Data set [22] in a line: Terminal elimination half life in Sprague-Dawley rat at 3 mg/kg, iv. It is filed as ADME, organism-based. The arrangement: dose 3 mg/kg, route intravenous. The conditions noted are these: in vivo, read-out: beta t1/2 (converted).
The nature of data set [23]: Volume of distribution at steady state in Sprague-Dawley rat at 3 mg/kg, iv. In kind it is ADME, organism-based. Also noted: dose 3 mg/kg, route intravenous. The conditions noted are these: in vivo, read-out: Vdss.
Data set [24] can be described thus: Drug metabolism in rat liver microsomes assessed as compound lability. It is filed as ADME. The note with it: read-out: Drug metabolism.
Data set [25] is described as follows: Clearance in Sprague-Dawley rat at 3 mg/kg, iv. It is filed as ADME, organism-based. Also noted: dose 3 mg/kg, route intravenous. The conditions noted are these: in vivo.
Data set [26] is described as follows: Terminal elimination half life in Sprague-Dawley rat at 10 mg/kg, po. Also noted: dose 10 mg/kg, route oral. The note with it: in vivo, read-out: beta t1/2 (converted). In kind it is ADME, organism-based.
Data set [27] can be described thus: Tmax in Sprague-Dawley rat at 10 mg/kg, po. Also noted: dose 10 mg/kg, route oral. The note with it: in vivo. It is filed as ADME, organism-based.
Data set [28] can be described thus: AUC in Sprague-Dawley rat at 10 mg/kg, po. The conditions noted are these: plasma. It is filed as ADME, organism-based. The arrangement: dose 10 mg/kg, route oral.
Data set [29] in a line: Cmax in Sprague-Dawley rat at 10 mg/kg, po. In kind it is ADME, organism-based. The conditions noted are these: in vivo. Also noted: dose 10 mg/kg, route oral.
The test system of another data set is Liver microsome. Described as §1. It is filed as ADME. The note with it: microsomes.
In another data set the test system is Caco-2. The data set is described as §2. In kind it is ADME, cell-based.

T1 sequence (P42338 whole entry, canonical isoform): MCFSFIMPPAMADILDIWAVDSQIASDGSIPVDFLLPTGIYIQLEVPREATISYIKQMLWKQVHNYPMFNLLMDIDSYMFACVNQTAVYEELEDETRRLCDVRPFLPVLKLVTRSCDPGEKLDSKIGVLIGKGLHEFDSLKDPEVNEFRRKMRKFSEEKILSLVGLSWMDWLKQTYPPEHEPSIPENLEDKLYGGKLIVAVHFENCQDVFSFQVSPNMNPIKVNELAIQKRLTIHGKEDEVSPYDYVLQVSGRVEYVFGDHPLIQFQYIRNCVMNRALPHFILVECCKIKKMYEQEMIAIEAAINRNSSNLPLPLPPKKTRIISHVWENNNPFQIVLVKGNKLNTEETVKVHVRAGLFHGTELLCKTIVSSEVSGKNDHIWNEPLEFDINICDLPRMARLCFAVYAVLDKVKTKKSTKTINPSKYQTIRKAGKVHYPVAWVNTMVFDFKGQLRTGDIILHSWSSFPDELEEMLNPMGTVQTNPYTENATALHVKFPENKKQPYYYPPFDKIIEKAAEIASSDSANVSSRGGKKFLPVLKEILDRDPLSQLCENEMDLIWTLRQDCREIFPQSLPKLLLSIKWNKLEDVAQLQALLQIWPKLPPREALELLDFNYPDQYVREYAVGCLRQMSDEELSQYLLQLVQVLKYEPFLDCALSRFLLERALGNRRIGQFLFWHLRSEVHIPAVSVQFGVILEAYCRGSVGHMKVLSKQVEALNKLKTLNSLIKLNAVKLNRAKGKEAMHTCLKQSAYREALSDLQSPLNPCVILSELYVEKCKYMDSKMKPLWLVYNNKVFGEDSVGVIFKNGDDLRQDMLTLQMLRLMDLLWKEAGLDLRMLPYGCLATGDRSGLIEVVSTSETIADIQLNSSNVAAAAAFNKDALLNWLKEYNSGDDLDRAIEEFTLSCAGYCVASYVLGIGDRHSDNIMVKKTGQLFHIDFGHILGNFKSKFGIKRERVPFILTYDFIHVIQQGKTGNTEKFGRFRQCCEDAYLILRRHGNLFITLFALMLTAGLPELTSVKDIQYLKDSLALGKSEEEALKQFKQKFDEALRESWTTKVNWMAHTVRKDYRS
Sequence of Phosphatidylinositol 4,5-bisphosphate 3-kinase catalytic subunit alpha isoform (P42336 whole entry, canonical isoform): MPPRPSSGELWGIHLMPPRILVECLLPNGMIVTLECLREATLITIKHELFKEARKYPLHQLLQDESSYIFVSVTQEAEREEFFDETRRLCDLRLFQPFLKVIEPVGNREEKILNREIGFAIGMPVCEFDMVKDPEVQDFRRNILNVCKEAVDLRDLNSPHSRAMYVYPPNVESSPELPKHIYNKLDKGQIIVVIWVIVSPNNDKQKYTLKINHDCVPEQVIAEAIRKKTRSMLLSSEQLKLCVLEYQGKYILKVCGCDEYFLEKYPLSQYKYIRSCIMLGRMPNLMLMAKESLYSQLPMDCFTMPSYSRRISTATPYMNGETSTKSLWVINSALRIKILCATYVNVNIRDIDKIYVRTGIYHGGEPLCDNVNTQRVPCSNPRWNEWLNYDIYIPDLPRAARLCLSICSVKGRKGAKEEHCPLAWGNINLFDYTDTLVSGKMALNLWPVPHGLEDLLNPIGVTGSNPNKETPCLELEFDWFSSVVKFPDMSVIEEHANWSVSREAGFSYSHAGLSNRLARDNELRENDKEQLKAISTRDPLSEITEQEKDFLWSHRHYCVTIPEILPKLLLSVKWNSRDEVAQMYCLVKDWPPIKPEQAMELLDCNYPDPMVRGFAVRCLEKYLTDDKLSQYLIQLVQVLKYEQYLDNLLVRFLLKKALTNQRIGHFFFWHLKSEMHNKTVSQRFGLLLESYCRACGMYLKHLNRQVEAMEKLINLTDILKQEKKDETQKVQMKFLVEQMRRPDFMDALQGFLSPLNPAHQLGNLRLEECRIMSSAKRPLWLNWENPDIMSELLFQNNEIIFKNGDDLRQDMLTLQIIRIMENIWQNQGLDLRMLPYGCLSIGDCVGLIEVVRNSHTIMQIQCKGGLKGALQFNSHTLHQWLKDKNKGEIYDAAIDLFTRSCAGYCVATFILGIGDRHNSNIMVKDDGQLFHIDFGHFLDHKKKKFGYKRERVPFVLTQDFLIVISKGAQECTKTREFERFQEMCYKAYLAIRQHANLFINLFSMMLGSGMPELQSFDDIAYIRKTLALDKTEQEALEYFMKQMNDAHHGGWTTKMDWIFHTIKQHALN
Sequence of Cytochrome P450 3A4 (P08684 whole entry): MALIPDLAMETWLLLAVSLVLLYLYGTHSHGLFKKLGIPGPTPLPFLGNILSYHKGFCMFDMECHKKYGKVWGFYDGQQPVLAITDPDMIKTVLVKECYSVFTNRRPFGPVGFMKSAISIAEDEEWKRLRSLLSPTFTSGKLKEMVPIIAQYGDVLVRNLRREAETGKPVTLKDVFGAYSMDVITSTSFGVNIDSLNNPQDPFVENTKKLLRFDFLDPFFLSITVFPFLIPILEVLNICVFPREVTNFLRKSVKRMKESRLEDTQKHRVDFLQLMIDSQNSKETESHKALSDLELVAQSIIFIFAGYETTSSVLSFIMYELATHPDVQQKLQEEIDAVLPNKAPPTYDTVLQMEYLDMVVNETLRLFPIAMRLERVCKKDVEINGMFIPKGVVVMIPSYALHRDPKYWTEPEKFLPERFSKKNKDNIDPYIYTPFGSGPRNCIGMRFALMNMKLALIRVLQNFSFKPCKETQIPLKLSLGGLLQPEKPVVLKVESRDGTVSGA
Sequence of Phosphatidylinositol 4,5-bisphosphate 3-kinase catalytic subunit gamma isoform (P48736 whole entry, canonical isoform): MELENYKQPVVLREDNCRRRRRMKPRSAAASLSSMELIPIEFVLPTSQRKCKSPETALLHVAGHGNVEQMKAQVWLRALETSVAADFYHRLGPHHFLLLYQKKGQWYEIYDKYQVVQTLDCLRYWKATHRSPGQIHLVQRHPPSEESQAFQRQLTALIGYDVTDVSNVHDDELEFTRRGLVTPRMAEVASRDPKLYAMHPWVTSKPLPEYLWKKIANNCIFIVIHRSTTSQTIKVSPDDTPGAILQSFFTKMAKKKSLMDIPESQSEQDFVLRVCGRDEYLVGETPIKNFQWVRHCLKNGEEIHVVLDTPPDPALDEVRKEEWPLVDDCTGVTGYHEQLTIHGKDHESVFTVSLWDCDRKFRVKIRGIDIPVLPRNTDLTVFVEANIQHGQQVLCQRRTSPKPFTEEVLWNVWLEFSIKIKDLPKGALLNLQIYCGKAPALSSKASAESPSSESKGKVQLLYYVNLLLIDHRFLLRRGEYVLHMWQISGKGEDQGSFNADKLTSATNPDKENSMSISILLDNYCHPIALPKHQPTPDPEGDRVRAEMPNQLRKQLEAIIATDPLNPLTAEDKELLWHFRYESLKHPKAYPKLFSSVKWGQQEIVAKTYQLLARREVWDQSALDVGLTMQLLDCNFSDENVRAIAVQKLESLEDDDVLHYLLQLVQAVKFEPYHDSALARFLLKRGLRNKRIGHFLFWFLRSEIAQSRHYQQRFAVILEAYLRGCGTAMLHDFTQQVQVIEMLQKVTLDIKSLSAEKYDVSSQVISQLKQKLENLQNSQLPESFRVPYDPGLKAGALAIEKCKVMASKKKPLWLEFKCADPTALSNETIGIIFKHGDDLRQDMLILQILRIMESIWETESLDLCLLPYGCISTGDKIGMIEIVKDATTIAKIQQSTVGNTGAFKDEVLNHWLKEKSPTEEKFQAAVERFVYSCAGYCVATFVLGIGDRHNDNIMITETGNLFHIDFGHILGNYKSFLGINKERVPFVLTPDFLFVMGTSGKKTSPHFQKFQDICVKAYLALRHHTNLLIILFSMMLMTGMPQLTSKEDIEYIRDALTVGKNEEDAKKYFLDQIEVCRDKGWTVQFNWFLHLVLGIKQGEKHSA

Take `O=C(O)c1sc(N2CCOCC2)nc1CC(=O)N1CCc2cc(F)ccc21`: the solubility thermodynamic at 16 h in data set [1] was 5.11 mM (≈ 2000 µg/mL). The IC50 in data set [2] was 1730 nM; in [3], greater than 10000 nM; in [4] it was 64 nM; in [5], 25 nM; in data set [6], greater than 10000 nM; at Cytochrome P450 3A4, 40000 nM. In addition, the metabolised in [7] and in data set [8] was 1% each time. Also, in [9], the efflux ratio stood at 13. Further, in data set [10], the Papp worked out at 0.4 ×10⁻⁶ cm/s.

On to `NC(=O)c1sc(N2CCOCC2)nc1CC(=O)N1CCc2cc(F)ccc21`, for which the solubility thermodynamic at 16 h in data set [1] stood at 0.007 mM (≈ 2.73 µg/mL). Further, the half-maximal inhibitory concentration (IC50) is 15 nM in [2]; greater than 10000 nM in data set [3]; 134 nM in data set [4]; 22 nM in data set [5]; 6970 nM in data set [6]; 40000 nM at Cytochrome P450 3A4. In addition, the concentration at 7 h in data set [11] stood at 40 nM. Moreover, in data set [12], the concentration at 16 h stood at 4 nM. The concentration at 1 h in data set [13] is 310 nM. Moreover, the inhibition entry in the data set on Mus musculus [14], with Mus musculus [15] and with Mus musculus [16] was “Active” each time. The metabolised came out at 17% in data set [7] and 22% in [8]. Also, in data set [10], the Papp came out at 22.2 ×10⁻⁶ cm/s.

Take `CC1Cc2c(Br)cccc2N1C(=O)Cc1nc(N2CCOCC2)sc1C(=O)O` (single isomer, unassigned; enantiomer 1): in data set [1] (buffer, pH 7.4, 16 h, 16 h), the Therm_solubility turned out to be 3.795 mM. Further, the IC50 in data set [2] was found to be 140 nM; in data set [3] it was 4350 nM; in [4] it was 63 nM; in data set [5], 10 nM; in data set [6] it was 395 nM. The fraction unbound in data set [17] is 0.015. The compound further had a concentration at 16 h in [18] of 3000 nM. The concentration at 7 h in [19] came to 79000 nM. This compound returned a concentration at 1 h in [20] of 181000 nM. Further, the bioavailability in [21] amounted to 99%. The half-life was 3.8 h in [22] and 6.3 h in data set [26]. In addition, in data set [23], the Vd stood at 0.65 L/kg. Besides, in data set [24], the metabolised turned out to be 7%. The clearance in data set [25] is 4.17 mL/min/kg. Moreover, the Tmax in data set [27] worked out at 0.25 h. In data set [28], this compound had an AUC of 41000 ng·h/mL. This compound also registered a Cmax in data set [29] of 15100 ng/mL. For the same compound, the Drug metabolism in [8] was determined as 17%. Moreover, the Papp in data set [10] is 0.5 ×10⁻⁶ cm/s.

For `CC1Cc2c(Br)cccc2N1C(=O)Cc1nc(N2CCOCC2)sc1C(N)=O` (single isomer, unassigned; enantiomer 2), the IC50 in data set [2] is 17 nM; in data set [3], greater than 10000 nM; in data set [4], 430 nM; in [5] it was 58 nM; in [6] it was 1320 nM; on Cytochrome P450 3A4 it was 40000 nM. Also, the Drug metabolism in the data set with Liver microsome was determined as 75%; in data set [8], 67%. In addition, in the data set on Caco-2, the Papp stood at 20.7 ×10⁻⁶ cm/s.
